Experiment [1] concerns the target T1, Threonine aspartase 1 (Homo sapiens) (UniProt Q9H6P5).
T1 sequence (whole entry): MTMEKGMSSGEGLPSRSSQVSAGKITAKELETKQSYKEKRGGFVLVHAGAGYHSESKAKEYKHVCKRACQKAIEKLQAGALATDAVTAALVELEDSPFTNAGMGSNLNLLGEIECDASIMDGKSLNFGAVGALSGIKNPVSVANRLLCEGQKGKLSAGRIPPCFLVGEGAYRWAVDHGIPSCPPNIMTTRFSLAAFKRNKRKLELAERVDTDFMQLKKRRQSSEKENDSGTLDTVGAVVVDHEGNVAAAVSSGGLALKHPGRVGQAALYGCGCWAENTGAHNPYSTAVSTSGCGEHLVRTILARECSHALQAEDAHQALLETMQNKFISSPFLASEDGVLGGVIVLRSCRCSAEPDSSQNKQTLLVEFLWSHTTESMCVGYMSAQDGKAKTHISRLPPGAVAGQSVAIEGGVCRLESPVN
Kind of experiment: Inhibition of recombinant Taspase1 (unknown origin) up to 0.1 mM using [35S]-methionine labeled human MLL1 (2400-2900 residues) as substrate preincubated for 30 mins followed by substrate addition measured after 30 mins by SDS-PAGE based autoradiography.

The target in another experiment is T2, Threonine aspartase 1 (Homo sapiens, UniProt Q9H6P5).
T2 sequence (Q9H6P5 whole entry): T1 sequence (whole entry)
In words: Inhibition of recombinant Taspase1 (unknown origin) using [35S]-methionine labeled human MLL1 (2400-2900 residues) as substrate preincubated for 30 mins followed by substrate addition measured after 30 mins by SDS-PAGE based autoradiography.

A further experiment deals with Caspase-8 (Homo sapiens) (UniProt Q14790). Kind of experiment: Inhibition of recombinant caspase8 (unknown origin) at 1 mM using [35S]-methionine labeled p22 BID as substrate preincubated for 30 mins followed by substrate addition measured after 2 hrs by SDS-PAGE based autoradiography.
Caspase-8 (Homo sapiens), sequence (Q14790 217-374 limits assumed): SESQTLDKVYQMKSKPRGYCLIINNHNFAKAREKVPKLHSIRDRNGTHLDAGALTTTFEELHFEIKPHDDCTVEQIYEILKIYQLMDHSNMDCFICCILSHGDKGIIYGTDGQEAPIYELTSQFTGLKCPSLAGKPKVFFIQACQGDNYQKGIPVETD
Caspase-8 (Homo sapiens), sequence (Q14790 385-479 limits assumed): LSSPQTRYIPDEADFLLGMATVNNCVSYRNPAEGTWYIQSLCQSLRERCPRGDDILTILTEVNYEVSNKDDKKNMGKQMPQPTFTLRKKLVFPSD
Another experiment concerns Hs-578T. Kind of experiment: Growth inhibition of human Hs578T cells expressing Taspase1. Type of experiment: functional, cell-based.
In a further experiment the test system is BT-549. In words: Growth inhibition of human BT549 cells expressing Taspase1. The class given is functional, cell-based.
In another experiment the test system is MCF7. Kind of experiment: Growth inhibition of human MCF7 cells expressing Taspase1. Type of experiment: functional, cell-based.
The test system of a further experiment is T47D. In words: Growth inhibition of human T47D cells expressing Taspase1. Type of experiment: functional, cell-based.
Experiment [2] addresses T1, Threonine aspartase 1 (Homo sapiens). In words: Covalent irreversible inhibition of recombinant Taspase1 (unknown origin) at 0.1 mM using [35S]-methionine labeled human MLL1 (2400-2900 residues) as substrate preincubated for 15 to 60 mins followed by substrate addition measured after 30 mins by SDS-PAGE based autoradiography.
Experiment [3] shares this target. In words: Inhibition of recombinant Taspase1 (unknown origin) at 1 mM using [35S]-methionine labeled human MLL1 (2400-2900 residues) as substrate preincubated for 30 mins followed by substrate addition measured after 30 mins by SDS-PAGE based autoradiography.
The test system of a further experiment is U-251. Kind of experiment: Growth inhibition of human U251 cells expressing Taspase1. Type of experiment: functional, cell-based.
The test system of the next experiment is SF-295. In words: Growth inhibition of human SF295 cells expressing Taspase1. The class given is functional, cell-based.
Another experiment concerns SF-268. Kind of experiment: Growth inhibition of human SF268 cells expressing Taspase1. The class given is functional, cell-based.
A further experiment concerns MDA-MB-231. Kind of experiment: Growth inhibition of human MDA-MB-231 cells expressing Taspase1. Type of experiment: functional, cell-based.
For experiment [4], the target named is T1, Threonine aspartase 1 (Homo sapiens). Kind of experiment: Inhibition of recombinant Taspase1 (unknown origin) at 10 uM using [35S]-methionine labeled human MLL1 (2400-2900 residues) as substrate preincubated for 30 mins followed by substrate addition measured after 30 mins by SDS-PAGE based autoradiography.
A further experiment concerns SNB-75. Kind of experiment: Growth inhibition of human SNB75 cells expressing Taspase1. The class given is functional, cell-based.
The subject of experiment [5] is MEF. Kind of experiment: Growth inhibition of SV40 transformed wild-type Taspase1 expressing MEF after 2 days by MTT ssay. Type of experiment: functional, cell-based. Conditions: Mus musculus.
The subject of experiment [6] is MEF. In words: Growth inhibition of SV40 transformed Taspase1 deficient MEF after 2 days by MTT assay. The class given is functional, cell-based. The note with it: Mus musculus.
The next experiment relates to SF-539. Kind of experiment: Growth inhibition of human SF539 cells expressing Taspase1. The class given is functional, cell-based.
Experiment [7] addresses T1, Threonine aspartase 1 (Homo sapiens). Kind of experiment: Inhibition of recombinant Taspase1 (unknown origin) at 10 to 1000 uM using [35S]-methionine labeled human MLL1 (2400-2900 residues) as substrate preincubated for 30 mins followed by substrate addition measured after 30 mins by SDS-PAGE based autoradiography.

Activity calls are given as the source filed them. The calls are words filed in the database; no cut-off is given here. Residues, ends and D or L forms follow the SMILES beside them. *: point of attachment. CH2Cl = ClC*

This is an account of results in ChEMBL document CHEMBL3991945, “TASPASE1 inhibitors and their uses” (2013).

For `O=[As](O)(O)O`, the inhibition entry in [1] is “inactive”.
In the case of `CC[C@H](C)[C@H](NC(=O)[C@H](CCCCN)NC(C)=O)C(=O)N[C@@H](CO)C(=O)N[C@@H](CCC(N)=O)C(=O)N[C@@H](CC(C)C)C(=O)N[C@H](C=O)CC(=O)O` (Ac-KISQLD-aldehyde), at Threonine aspartase 1, the IC50 is over 100 µM.
For `O=[As](O)(O)c1ccc(Cc2ccc([As](=O)(O)O)cc2)cc1`, the inhibition result (on Caspase-8 (Homo sapiens); in [2]) was “inactive” throughout. For the same compound, the “growth inhibition (GI)” value in the experiment on Hs-578T, in the experiment with BT-549, with MCF7, in the experiment with T47D, in the experiment with U-251 and with SF-295 was “Active” each time. Also, the “growth inhibition (GI)” value in the experiment with SF-268, in the experiment with MDA-MB-231, with SNB-75, in the experiment on MEF [5] and in the experiment with SF-539 was “Active” throughout. The inhibition result in experiment [3] and in [4] was “Active” throughout. The “growth inhibition (GI)” value with MEF [6] was “inactive”.
In the case of `O=C(O)Cc1ccc(Oc2ccc(CC(=O)O)cc2)cc1`, in experiment [7], the inhibition entry was “inactive”.
As for `CC[C@H](C)[C@H](NC(C)=O)C(=O)N[C@@H](CO)C(=O)N[C@@H](CCC(N)=O)C(=O)N[C@@H](CC(C)C)C(=O)N[C@@H](CC(=O)O)C(=O)CCl` (Ac-ISQLD-CH2Cl), the IC50 at Threonine aspartase 1 is over 100 µM.
